According to patent US20070031356A1, “Beta-carotene modulation of gene expression” (priority 2005, published 2007):
Values joined by “and” are separate entries in the source; they are usually repeats but may differ in a detail not shown here. Equal entries are not always repeated. “Also recorded” adds a separate entry of the source.

Key:
[1] = cited from earlier work
HaCaT cells [2] = test: TaqMan QRT-PCR of key genes; format: cell-based, human
Protocol: Cells were supplemented with β-carotene for 2 days prior to UVA irradiation (270 kJ/m^2) either in normal PBS or D2O-PBS. Gene expression 5 hours after irradiation was determined by quantitative real time polymerase chain reaction. (“QRT-PCR”). Values are geometric mean±standard error of three experiments.
Key gene regulation was confirmed in three independent cell irradiation experiments using TaqMan® QRT-PCR as described (Wertz, 2004). In these experiments, cells were pretreated with 0.5, 1.5, or 3 μM β-carotene, to analyze for dose-dependent β-carotene effects. In addition, cells were irradiated either in D2O-containing PBS or in H2O-containing PBS, to analyze for the ^1O2 inducibility of genes.

[3] = system: HaCaT human keratinocytes; test: Affymetrix GeneChip microarray, gene regulation by β-carotene and/or UVA; format: cell-based
Protocol: UVA exposure is thought to cause skin aging mainly by singlet oxygen (^1O2)-dependent pathways. Using microarray hybridization the effect of pretreatment with the ^1O2 quencher β-carotene (1.5 μM) on prevention of UVA-induced gene regulation in HaCaT human keratinocytes was explored.
The cell culture experiments were carried out as described (Wertz, 2004). Briefly, a subclone of passage 65 HaCaT keratinocytes, selected for differentiation capacity, was used at passages 16 to 23 after subcloning. 2×10^5 cells were seeded per 60 millimeter dish. Starting the following day, the cells were pretreated for 2 days with β-carotene at 1.5 μM, a typical concentration in human plasma after moderate dietary supplementation (Thurmann, 2002).
(§1) β-carotene-containing medium was prepared as follows. Fresh all-E-β-carotene (DSM Nutritional Products, Kaiseraugst, Switzerland) stock solution in THF (containing 0.025% BHT; Fluka Chemie AG, Switzerland) was diluted 1:2 with ethanol and added to cell culture medium to a final concentration of 1.5 μM β-carotene. The solvent concentration in the medium was 0.5% for all treatments. β-carotene-containing medium was prepared fresh for the daily medium changes.
On day 3 of the experiment, the cells were irradiated with a Hönle sun lamp Sol 500 (270 kJ/m^2; Dr. Hönle, Germany).
Five independent, factorially designed cell irradiation experiments were analyzed by microarray hybridization. For each experiment, one chip was hybridized per treatment condition. GeneChip® analysis was done as described in Siler, 2004, which is incorporated by reference as if recited in full herein. Gene regulation by β-carotene and/or UVA was calculated relative to placebo.
Changes in gene expression were included in further analysis only if the change factor was ≧0.5 or ≦−0.5, and if unpaired t-tests yielded p values ≦0.05. Upregulations by a change factor of ≧0.5 are labeled bold, downregulations by a change factor of ≦−0.5 are labeled bold italics. (Table 1.) To identify the pathways affected by the treatments functional information on the genes was retrieved from public literature databases.

caspase-3 = test: Caspase-3 activity (CaspACE Assay System); format: cell-based, human
Protocol: Cells were supplemented with β-carotene for 2 days and prior to UVA irradiation (270 kJ/m^2). Caspase-3 activity was determined at 5 hours after irradiation. Values are mean±standard error of an experiment with four replicates.
Caspase-3 activity 5 hours after UVA irradiation was quantified in five separate experiments using the CaspACE™ Assay System (Promega/Catalys, Switzerland).

HaCaT cells [4] = conditions: cited from earlier work
[5] = β-carotene supplementation, rodents (e.g. Mathews-Roth, 1982); cited from earlier work
[6] = β-carotene concentration in culture medium during incubation; format: physicochemical; conditions: during the 24 hours of incubation, irrespective of the presence of cells
Protocol: as §1

[7] = UVA 270 kJ/m^2, 5 hours after irradiation
[8] = UVA 270 kJ/m^2 after 1.5 μM 2 days, vs placebo
[9] = unirradiated, 1.5 μM 2 days, vs placebo

In the case of `CC1=C(/C=C/C(C)=C/C=C/C(C)=C/C=C/C=C(C)/C=C/C=C(C)/C=C/C2=C(C)CCCC2(C)C)C(C)(C)CCC1` [β-Carotene, all-E-β-carotene], the UV-induced immune suppression ([1]; (Fuller, 1992)) is given as “prevents”, the “number of sunburn cells” value ([1]; β-carotene supplementation, humans (Garmyn, 1995)) is given as “did not alter” and the “sunburn erythema after sun exposure” value ([1]; β-carotene supplementation, literature studies) is given as “alleviates; also recorded: mild reduction; also recorded: mildly reduces”. The “UVA-induced GADD34 transcription (QRT-PCR)” value (HaCaT cells [2]; [7]) was “enhancement”, the “UVA-induced GADD153 transcription (QRT-PCR)” value (HaCaT cells [2]; [7]) was “enhancement” and the “MMP-10 induction by UVA/D2O” value (HaCaT cells [2]; UVA/D2O) was “dose-dependently inhibited”. The “integrinα6 transcription (QRT-PCR)” value (HaCaT cells [2]; irradiated and unirradiated HaCaT cells, 5 hours after irradiation) was “confirmed downregulation; also recorded: inhibition”, the “BPAG1; bullous pemphigoid antigen (M69225) change factor” value [3, 8] was “Downregulation” and the “C-FOS (V01512) change factor” value [3, 8] was 1.36. For the same compound, the “ERF-2 (X78992) change factor” value [3, 8] was “enhanced”, the “GADD34 (U83981) change factor” value [3, 8] was “enhanced” and the “GADD153 (S62138) change factor” value [3, 8] was “upregulation; also recorded: enhanced”. The “IGF-BP 3; insulin-like growth factor-binding protein-3 gene (M35878) change factor” value [3, 8] was 1.73, the “IL6; Interleukin 6; IFNβα2a (X04430) change factor” value [3, 8] was “enhanced” and the “ILK; integrin-linked kinase (U40282) change factor” value [3, 8] was “Downregulation”. For the same compound, the “JUND (X56681) change factor” value [3, 8] was 1.83 and 1.66, the “KLF4; EZF (epithelial Zn finger) (U70663) change factor” value [3, 8] was “upregulation” and the “Lekti (AJ228139) change factor” value [3, 8] was “upregulated”. The “MMP10 (X07820) change factor” value [3, 8] was “inhibited”, the “PAR-2; proteinase activated receptor-2 (U34038) change factor” value [3, 8] was 1.34 and the “TDAG51; PQ-rich protein; PHLDA1 (Z50194) change factor” value [3, 8] was “enhanced”. For the same compound, the “TRIP14; ′2-5′ oligoadenylate synthetase (AJ225089) change factor” value [3, 8] was 0.67, the “c-myc (V00568) change factor” value [3, 8] was 2.45 and the “connexin 31 (AF099730) change factor” value [3, 8] was “upregulation”. The “connexin 45 (U03493) change factor” value [3, 8] was “Downregulation”, the “integrin α6 (X53586) change factor” value [3, 8] was “Downregulation” and the “serpinB1 (M93056) change factor” value [3, 8] was “upregulated”. The “number of genes regulated by co-treatment with UVA radiation and β-carotene” value ([3]; UVA + β-carotene) was 1142 genes, the “UVA induction of PAR-2” value ([3]; UVA-irradiated keratinocytes) was “further increased” and the “UVA upregulation of IFNα/Iβ targets” value ([3]; UVA-irradiated keratinocytes) was “reduced”. The “UVA upregulation of VEGF” value ([3]; UVA-irradiated keratinocytes) was “reduced”, the desmocollins gene regulation ([3]; UVA/β-carotene treatment) was “Downregulation” and the TIMP-1 gene regulation ([3]; all treatments) was “not influenced”. The “UVA-regulated genes for which β-carotene enhanced the UVA effect” value ([3]; of 568 UVA-regulated genes) was 180 genes, the “UVA-regulated genes for which β-carotene had no effect” value ([3]; of 568 UVA-regulated genes) was 245 genes and the “UVA-regulated genes for which β-carotene reduced the UVA-induced effect” value ([3]; of 568 UVA-regulated genes) was 143 genes. For the same compound, the “co-treatment-regulated genes not regulated by only UVA or β-carotene alone” value ([3]; of the 1142 genes) was 610 genes, the Bax gene regulation ([3]; unirradiated keratinocytes) was “upregulated” and the JUN-B gene regulation ([3]; unirradiated keratinocytes) was “downregulated”. The VEGF gene regulation ([3]; unirradiated keratinocytes) was “mildly downregulated”, the “BMP2a; bone morphogenetic protein 2a (bmp-2a) (M22489) change factor” value [3, 9] was “downregulated” and the “BPAG1; bullous pemphigoid antigen (M69225) change factor” value [3, 9] was “decreased”. The “BUB1; mitotic checkpoint kinase (AF053305) change factor” value [3, 9] was “downregulated”, the “COX-2, cyclooxygenase-2 (U04636) change factor” value [3, 9] was “mildly downregulated” and the “DNA ligase III (X84740) change factor” value [3, 9] was “downregulated”. The “EGFR; precursor of epidermal growth factor receptor (X00588) change factor” value [3, 9] was “downregulated”, the “ENDOGL-2 (AB020735) change factor” value [3, 9] was “upregulated” and the “FRA-2 (X16706) change factor” value [3, 9] was “downregulated”. For the same compound, the “GEM (U10550) change factor” value [3, 9] was “downregulated”, the “HOXD4 (X59373) change factor” value [3, 9] was “downregulated” and the “ID-2H (D13891) change factor” value [3, 9] was “downregulated”. The “IGF-BP 3; insulin-like growth factor-binding protein-3 gene (M35878) change factor” value [3, 9] was 0.22, the “IL6; Interleukin 6; IFNβα2a (X04430) change factor” value [3, 9] was “upregulated” and the “IL18; IGIF (IFNγ inducing factor) (D49950) change factor” value [3, 9] was “downregulated”. The “IRF-9; p48; ISGF3γ; Interferon-stimulated transcription factor 3γ (M97935) change factor” value [3, 9] was −0.18, the “KRS-2; stress responsive serine/threonine protein kinase (U60207) change factor” value [3, 9] was “downregulated” and the “MMP10 (X07820) change factor” value [3, 9] was “reduced”. The “NCF2; p67-phox; neutrophil oxidase factor (M32011) change factor” value [3, 9] was “downregulated”, the “NOTCH3 (U97669) change factor” value [3, 9] was “downregulated” and the “NRF2, subunit beta 1 (U13045) change factor” value [3, 9] was “downregulated”. The “RETSDR1; retinal short-chain dehydrogenase/reductase (AF061741) change factor” value [3, 9] was “induced”, the “RPA; replication protein A 14kda subunit (rpa) (L07493) change factor” value [3, 9] was −0.04 and the “Requiem (AF001433) change factor” value [3, 9] was “upregulated”. The “SMAD1 (U59423) change factor” value [3, 9] was −0.27, the “TIEG, EGRα (AF050110) change factor” value [3, 9] was “downregulated; also recorded: downregulation” and the “TLR3; toll-like receptor 3 (U88879) change factor” value [3, 9] was “upregulated”. The “TRIP14; ′2-5′ oligoadenylate synthetase (AJ225089) change factor” value [3, 9] was −0.07, the “TSSC3/IPL (AF001294) change factor” value [3, 9] was “downregulation” and the “WNT5A (I20861) change factor” value [3, 9] was “downregulated”. The “collagen type IV, α-5 (COL4A5) (M58526) change factor” value [3, 9] was “decreased”, the “integrin α6 (X53586) change factor” value [3, 9] was “decreased” and the “keratin 15 (J00124) change factor” value [3, 9] was “decreased”. For the same compound, the “number of genes regulated by β-carotene” value ([3]; β-carotene alone, change factor ≧0.5 or ≦−0.5, p ≦0.05) was 381 genes, the “caspase-3 activity / apoptosis” value (caspase-3; unirradiated cells, β-carotene alone) was “not sufficient to induce apoptosis; also recorded: Neither UVA nor β-carotene alone activated caspase-3” and the caspase-3 activity (caspase-3; β-carotene 2 days then UVA 270 kJ/m^2, 5 hours after irradiation) was “dose-dependent induction of caspase-3 activity”. The “UVA induction of MMP-3” value (HaCaT cells [4]; (Wertz, 2004)) was “downregulated”, the “basal and 1O2-induced expression of MMP-1” value (HaCaT cells [4]; (Wertz, 2004)) was “reduced” and the “basal MMP-1 expression” value (HaCaT cells [4]; unirradiated (Wertz, 2004)) was “mildly reduces”. The “basal expression of MMP-10, QRT-PCR in independent experiments” value (HaCaT cells [4]; unirradiated (Wertz, 2004)) was “confirmed”, the skin carcinogenesis [5] was “reduced” and the “β-carotene concentration in medium dropped to” value [6] was “approximately 50%”.
